Laboratory results published in article PMC7966987, “Insights into the catalytic properties of the mitochondrial rhomboid protease PARL” (The Journal of Biological Chemistry, 2021).
Read-outs that look alike come from different tables or passages of the source.

Columns and labels:
PARLΔ77 [1] = biological target: T1, PARLΔ77 (Homo sapiens, UniProt Q9H300); experiment: Multiplex substrate profiling by mass spectrometry (MSP-MS), PARLΔ77 in proteoliposomes; type: biochemical; conditions: PARLΔ77 1 μM in PL containing PC, PE and CL, peptides 0.5 μM each, pH 7.0, without DDM, LC-MS/MS, quadruplicate; for FC_60min (fold change of cleavage product, Annotated_Sequence): 60 vs 0 min; for FC_240min (fold change of cleavage product, Annotated_Sequence): 240 vs 0 min
T1 construct: GFP-hexahistidine (behind a TEV cleavage site) (C, cleaved yes); made in house; host or cells: Pichia pastoris
T1 sequence (Q9H300 78-379): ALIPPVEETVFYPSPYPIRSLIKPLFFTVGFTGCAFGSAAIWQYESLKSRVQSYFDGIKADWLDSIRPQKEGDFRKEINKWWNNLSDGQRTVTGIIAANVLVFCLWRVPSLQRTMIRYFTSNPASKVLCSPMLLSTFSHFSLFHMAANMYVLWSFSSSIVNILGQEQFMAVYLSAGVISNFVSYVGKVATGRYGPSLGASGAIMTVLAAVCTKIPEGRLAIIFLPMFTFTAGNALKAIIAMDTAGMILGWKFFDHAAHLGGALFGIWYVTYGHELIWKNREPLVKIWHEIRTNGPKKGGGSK
Protocol: (§1) Multiplex substrate profiling by mass spectrometry (MSP-MS) assays was performed in quadruplicate. In total, 1 μM of PARLΔ77 was incubated with an equimolar mixture of 228 synthetic tetradecapeptides at a final concentration of 0.5 μM for each peptide in 50 mM Tris-HCl pH 7.0, 150 mM NaCl, 10% glycerol, with or without 0.1% DDM. The sequence of each peptide is listed in Supplementary Data File. These peptides have been validated as substrates for a wide variety of proteolytic enzymes (PMID 23023596, 24073241, 25944934) including bacterial rhomboid proteases (30705125). For each assay, 20 μl of the reaction mixture was removed after 0, 60, and 240 min of incubation. Enzyme activity was quenched by adding GuHCl (MP Biomedicals) to a final concentration of 6.4 M, and samples were immediately stored at –80 °C. All samples were desalted using C18 spin columns and dried by vacuum centrifugation.
(§2) Approximately 2 μg of peptides was injected into a Q-Exactive Mass Spectrometer (Thermo) equipped with an Ultimate 3000 HPLC. Peptides were separated by reverse-phase chromatography on a C18 column (1.7 μm bead size, 75 μm × 25 cm, 65 °C) at a flow rate of 300 nl/min using a 60-min linear gradient from 5% to 30% B, with solvent A: 0.1% formic acid in water and solvent B: 0.1% formic acid in acetonitrile. Survey scans were recorded over a 150–2000 m/z range (70,000 resolutions at 200 m/z, AGC target 3 × 10^6, 100 ms maximum). MS/MS was performed in data-dependent acquisition mode with HCD fragmentation (28 normalized collision energy) on the 12 most intense precursor ions (17,500 resolutions at 200 m/z, AGC target 1 × 10^5, 50 ms maximum, dynamic exclusion 20 s).
(§3) Data was processed using PEAKS 8.5 (Bioinformatics Solutions Inc). MS^2 data were searched against the 228 tetradecapeptide library sequences with decoy sequences in reverse order. A precursor tolerance of 20 ppm and 0.01 Da for MS^2 fragments was defined. No protease digestion and modification were specified. Data were filtered to 1% peptide-level false discovery rates with the target-decoy strategy. Peptides were quantified with label-free quantification and data are normalized by medians and filtered by 0.3 peptide quality. Missing and zero values are imputed with random normally distributed numbers in the range of the average of smallest 5% of the data ± SD. Cleaved sequences were defined as peptide products that increase by a fold change of >8 and q value <0.05 (by Student t test) between 0 min and 240 min. IceLogo software was used for visualization of amino-acid frequency surrounding the cleavage sites. Amino acids that were most frequently observed (above axis) and least frequently observed (below axis) from P4 to P4ʹ positions were illustrated. Norleucine (Nle) was represented as “n” in the reported profiles. Mass spectrometry data and searching results have been deposited in MassIVE with accession number, MSV000085295.

PARLΔ77 [2] = biological target: T1, PARLΔ77; experiment: Multiplex substrate profiling by mass spectrometry (MSP-MS), PARLΔ77 in DDM; type: biochemical; conditions: PARLΔ77 1 μM, 0.1% DDM, peptides 0.5 μM each, LC-MS/MS, quadruplicate; for FC_60min (fold change of cleavage product, Annotated_Sequence): pH 7.0, 60 vs 0 min; for FC_240min (fold change of cleavage product, Annotated_Sequence): pH 7.0, 240 vs 0 min
Protocol: as §1, §2, §3

PARLΔ77 [3] = biological target: T1, PARLΔ77; experiment: Lipid effect on PARLΔ77 cleavage of FRET-PINK1(70-134); type: biochemical; conditions: vs no lipid, N = 4
Excerpt: Lipids are known to influence membrane protein function ([29]). In mitochondria, for example, increased CL amounts are observed during mitochondrial stress, which influences protein function at the molecular level ([30]). Therefore, we assessed the effect of the three primary lipids present in the IMM, namely CL, phosphatidylcholine (POPC), and phosphatidylethanolamine (POPE) on PARLΔ77 activity with the FRET-PINK^70–134 substrate (Fig. 1D) ([31]). The lipid-free conditions were used as a baseline and consisted of PARLΔ77 reconstituted in detergent (DDM) micelles, while all lipid conditions consisted of a mixed detergent-lipid micelle system. First we assess the effect of different classes of lipids. […] In order to precisely determine the optimal concentration of CL for PARL activity, the initial velocities of PARL-mediated cleavage of FRET-PINK1^70–134 were measured in the presence of increasing concentrations of CL. […] Therefore, CL was included in all subsequent protein preparations of detergent-solubilized PARL at the last purification step.
Figure S5. The dependence of PA R LΔ77activity on CL concentration. The initial velocities of PA R LΔ77weremeasuredin the presence of different molar ratios of CL using FRET-PINK170-134 substrate. One-way ANOVA with multiple comparisons was performed between the no-lipid condition and each molar ratio of CL:protein to determine if differences observed were significant. A total of five experimental replicates performed in duplicate were used for data analysis (N = 5). Individual data points (black dots) are indicated on the bar graphs, representing the mean ±SEM
(1 picture or pasted object on this page, not shown here)

preferred substrates = conditions: cited from earlier work
Protocol: The bacterial rhomboid proteases from Haemophilus influenzae (HiGlpG) and P. stuartii (AarA) cleave at a rate of roughly two per minute for their preferred substrates in DDM, while the E. coli rhomboid protease GlpG cleaves slowly in DDM, much like PARL, at a rate of approximately six per hour and with a rate of 2.5 min^−1 in PLs ([26], [34], [35]).

[4] = lipid at molar ratio 50:1, mixed detergent (DDM)-lipid micelles

AETSIKVFMPYYGH [TDP91, synthetic tetradecapeptide of the 228-peptide library]
FC_60min (fold change of cleavage product, Annotated_Sequence) (PARLΔ77 [1]): 43.5042
FC_240min (fold change of cleavage product, Annotated_Sequence) (PARLΔ77 [1]): 295.878

AMTDRGWYLAIQAV [TDP15, synthetic tetradecapeptide of the 228-peptide library]
FC_60min (fold change of cleavage product, Annotated_Sequence) (PARLΔ77 [2]; TDP160: product INDFLVR.T): 247.32
FC_240min (fold change of cleavage product, Annotated_Sequence) (PARLΔ77 [2]; TDP160: product INDFLVR.T): 689.515

GPKLTYDFWIQNLP [TDP89, synthetic tetradecapeptide of the 228-peptide library]
FC_60min (fold change of cleavage product, Annotated_Sequence) (PARLΔ77 [2]; TDP160: product INDFLVR.T): 270.23
FC_240min (fold change of cleavage product, Annotated_Sequence) (PARLΔ77 [2]; TDP160: product INDFLVR.T): 1077.04

GQYPMFVKISTTHW [TDP96, synthetic tetradecapeptide of the 228-peptide library]
FC_60min (fold change of cleavage product, Annotated_Sequence) (PARLΔ77 [1]): 35.4935
FC_240min (fold change of cleavage product, Annotated_Sequence) (PARLΔ77 [1]): 328.605

INDFLVRTWKMPGL [TDP160, synthetic tetradecapeptide of the 228-peptide library]
FC_60min (fold change of cleavage product, Annotated_Sequence) (PARLΔ77 [2]; TDP160: product INDFLVR.T): 264.961
FC_240min (fold change of cleavage product, Annotated_Sequence) (PARLΔ77 [2]; TDP160: product INDFLVR.T): 895.528
FC_60min (fold change of cleavage product, Annotated_Sequence) (PARLΔ77 [2]; product F.LVRTWKLPGL): 150.552
FC_240min (fold change of cleavage product, Annotated_Sequence) (PARLΔ77 [2]; product F.LVRTWKLPGL): 507.811

MHSPWTMANFLRGP [TDP94, synthetic tetradecapeptide of the 228-peptide library]
FC_60min (fold change of cleavage product, Annotated_Sequence) (PARLΔ77 [1]): 254.488
FC_240min (fold change of cleavage product, Annotated_Sequence) (PARLΔ77 [1]): 1890.88
FC_60min (fold change of cleavage product, Annotated_Sequence) (PARLΔ77 [2]; TDP160: product INDFLVR.T): 682.585
FC_240min (fold change of cleavage product, Annotated_Sequence) (PARLΔ77 [2]; TDP160: product INDFLVR.T): 2284.43

NVDWTAPQLIEYLD [TDP138, synthetic tetradecapeptide of the 228-peptide library]
FC_60min (fold change of cleavage product, Annotated_Sequence) (PARLΔ77 [1]): 42.87
FC_240min (fold change of cleavage product, Annotated_Sequence) (PARLΔ77 [1]): 40.3813

QAVRPNGMYWHYLM [TDP216, synthetic tetradecapeptide of the 228-peptide library]
FC_60min (fold change of cleavage product, Annotated_Sequence) (PARLΔ77 [1]): 43.2174
FC_240min (fold change of cleavage product, Annotated_Sequence) (PARLΔ77 [1]): 200.338

cardiolipin [CL]
effect on PARL activity (PARLΔ77 [3]; [4]): significant increase in PARL activity

phosphatidylethanolamine [POPE]
effect on PARL activity (PARLΔ77 [3]; [4]): did not significantly increase PARL activity
effect on PARL activity (PARLΔ77 [3]; lipid at molar ratio 100:1, mixed detergent (DDM)-lipid micelles): did not significantly increase PARL activity

B1: HiGlpG: bacterial rhomboid protease from Haemophilus influenzae (protein, UniProt P44783 1-192, looked up)
Rhomboid protease GlpG: MKNFLAQQGKITLILTALCVLIYLAQQLGFEDDIMYLMHYPAYEEQDSEVWRYISHTLVHLSNLHILFNLSWFFIFGGMIERTFGSVKLLMLYVVASAITGYVQNYVSGPAFFGLSGVVYAVLGYVFIRDKLNHHLFDLPEGFFTMLLVGIALGFISPLFGVEMGNAAHISGLIVGLIWGFIDSKLRKNSLE
cleavage rate (preferred substrates; preferred substrates, in DDM): roughly two

B2: AarA: bacterial rhomboid protease from P. stuartii (protein, UniProt P46116 1-281, looked up)
Rhomboid protease AarA: MAEQQNPFSIKSKARFSLGAIALTLTLVLLNIAVYFYQIVFASPLDSRESNLILFGANIYQLSLTGDWWRYPISMMLHSNGTHLAFNCLALFVIGIGCERAYGKFKLLAIYIISGIGAALFSAYWQYYEISNSDLWTDSTVYITIGVGASGAIMGIAAASVIYLIKVVINKPNPHPVIQRRQKYQLYNLIAMIALTLINGLQSGVDNAAHIGGAIIGALISIAYILVPHKLRVANLCITVIAASLLTMMIYLYSFSTNKHLLEEREFIYQEVYTELADANQ
cleavage rate (preferred substrates; preferred substrates, in DDM): roughly two

B3: GlpG: E. coli rhomboid protease (protein, UniProt P09391 1-276, looked up)
Rhomboid protease GlpG: MLMITSFANPRVAQAFVDYMATQGVILTIQQHNQSDVWLADESQAERVRAELARFLENPADPRYLAASWQAGHTGSGLHYRRYPFFAALRERAGPVTWVMMIACVVVFIAMQILGDQEVMLWLAWPFDPTLKFEFWRYFTHALMHFSLMHILFNLLWWWYLGGAVEKRLGSGKLIVITLISALLSGYVQQKFSGPWFGGLSGVVYALMGYVWLRGERDPQSGIYLQRGLIIFALIWIVAGWFDLFGMSMANGAHIAGLAVGLAMAFVDSLNARKRK
cleavage rate (preferred substrates; in DDM): approximately six
cleavage rate (preferred substrates; in PLs): 2.5 min⁻¹
